Experimental data taken from patent US9420787B2, “Method for controlling noxious organisms” (SUMITOMO CHEMICAL COMPANY, LIMITED, priority 2012, dated 2016).

What was measured:
Type in all cases: in vivo
Ivyleaf morningglory [1] = test: Herbicidal effect in pots sown with ethaboxam-treated cotton seeds, PPO inhibitor sprayed on soil (Example 3); conditions: cotton pot, day 7 after sowing, scale 0 to 100
Experimental: In a plastic cup of 100 mm in inside diameter and 40 mm in height, 5.7 mg of an ethaboxam suspension (a suspension containing 34.6% of ethaboxam, manufactured by Valent USA Corp.) and 40 cotton seeds were placed. The plastic cup was shaken by the hand so that the ethaboxam suspension was attached to the cotton seeds. The weight of 40 cotton seeds was 6.6 g, and the amount of ethaboxam by the above treatment was calculated as 30 g per 100 kg of the cotton seeds. In the same manner, 56.7 mg of the ethaboxam suspension was attached to 40 cotton seeds. The weight of 40 cotton seeds was 6.55 g, and the amount of ethaboxam by the above treatment was calculated as 300 g per 100 kg of the cotton seeds. A soil was packed in a plastic pot of 120 mm in inside diameter×80 mm in height. The above cotton seeds were sown in this pot at a rate of two seeds per pot, and the seeds of ivyleaf morningglory were sown at a rate of four seeds per pot. On the day of sowing the cottonseeds and after sowing the cotton seeds, an aqueous diluted solution (113 mg of active ingredient/L or 225 mg of active ingredient/L) of a flumioxazin granular wettable powder (a granular wettable powder containing 51% of flumioxazin, trade name: Valor SX, manufactured by Valent USA), an aqueous diluted solution (226 mg of active ingredient/L or 1130 mg of active ingredient/L) of a sulfentrazone granular wettable powder (a granular wettable powder containing 75% of sulfentrazone, trade name: Cover, manufactured by DuPont), or an aqueous diluted solution (113 mg/L or 226 mg/L) of saflufenacil was uniformly sprayed on the soil surface with a sprayer so as to apply the amount described in Tables 7 to 9. […] On day 7 after sowing the seeds of cotton and ivyleaf morningglory, the herbicidal effect was investigated.

Ivyleaf morningglory [2] = test: Herbicidal effect in pots sown with ethaboxam-treated corn seeds, PPO inhibitor sprayed on soil (Example 2); conditions: corn pot, day 7 after sowing, scale 0 to 100
Experimental: In a plastic cup of 100 mm in inside diameter and 40 mm in height, 13.4 mg of an ethaboxam suspension (a suspension containing 34. 6% of ethaboxam, manufactured by Valent USA Corp.) and 40 corn seeds were placed. The plastic cup was shaken by the hand so that the ethaboxam suspension was attached to the corn seeds. The weight of 40 corn seeds was 15.5 g, and the amount of ethaboxam by the above treatment was calculated as 30 g per 100 kg of the corn seeds. In the same manner, 138.7 mg of the ethaboxam suspension was attached to 40 corn seeds. The weight of 40 corn seeds was 16.0 g, and the amount of ethaboxam by the above treatment was calculated as 300 g per 100 kg of the corn seeds. A soil was packed in a plastic pot of 120 mm in inside diameter×80 mm in height. The above treated corn seeds were sown in this pot at a rate of two seeds per pot, and the seeds of ivyleaf morningglory were sown at a rate of four seeds per pot. On the day of sowing the corn seeds and after sowing the corn seeds, an aqueous diluted solution (113 mg of active ingredient/L or 225 mg of active ingredient/L) of a flumioxazin granular wettable powder (a granular wettable powder containing 51% of flumioxazin, trade name: Valor SX, manufactured by Valent USA), an aqueous diluted solution (226 mg of active ingredient/L or 1130 mg of active ingredient/L) of a sulfentrazone granular wettable powder (a granular wettable powder containing 75% of sulfentrazone, trade name: Cover, manufactured by DuPont), or an aqueous diluted solution (113 mg/L or 226 mg/L) of saflufenacil was uniformly sprayed on the soil surface with a sprayer so as to apply the amount described in Tables 4 to 6. […] On day 7 after sowing the seeds of corn and ivyleaf morningglory, the herbicidal effect was investigated.

Ivyleaf morningglory [3] = test: Herbicidal effect in pots sown with ethaboxam-treated soybean seeds, PPO inhibitor sprayed on soil (Example 1); conditions: soybean pot, day 7 after sowing, scale 0 to 100
Experimental: In a plastic cup of 100 mm in inside diameter and 40 mm in height, 10.5 mg of an ethaboxam suspension (a suspension containing 34.6% of ethaboxam, manufactured by Valent USA Corp.) and 40 soybean seeds were placed. The plastic cup was shaken by the hand so that the ethaboxam suspension was attached to the soybean seeds. The weight of 40 soybean seeds was 12.1 g, and the amount of ethaboxam by the above treatment was calculated as 30 g per 100 kg of the soybean seeds. In the same manner, 104.9 mg of the ethaboxam suspension was attached to 40 soybean seeds. The weight of 40 soybean seeds was 12.1 g, and the amount of ethaboxam by the above treatment was calculated as 300 g per 100 kg of the soybean seeds. A soil was packed in a plastic pot of 120 mm in inside diameter×80 mm in height. The above treated soybean seeds were sown in this pot at a rate of two seeds per pot, and the seeds of ivyleaf morningglory were sown at a rate of four seeds per pot. On the day of sowing the soybean seeds and after sowing the soybean seeds, an aqueous diluted solution (113 mg of active ingredient/L or 225 mg of active ingredient/L) of a flumioxazin granular wettable powder (a granular wettable powder containing 51% of flumioxazin, trade name: Valor SX, manufactured by Valent USA), an aqueous diluted solution (226 mg of active ingredient/L or 1130 mg of active ingredient/L) of a sulfentrazone granular wettable powder (a granular wettable powder containing 75% of sulfentrazone, trade name: Cover, manufactured by DuPont), or an aqueous diluted solution (113 mg/L or 226 mg/L) of saflufenacil was uniformly sprayed on the soil surface with a sprayer so as to apply the amount described in Tables 1 to 3. […] On day 7 after sowing the seeds of soybean and ivyleaf morningglory, the herbicidal effect was investigated.

[4] = no ethaboxam, flumioxazin 100 g/ha
[5] = no ethaboxam, saflufenacil 100 g/ha
[6] = ethaboxam 30 g/100 kg of seeds, no PPO inhibitor
[7] = ethaboxam 300 g/100 kg of seeds, no PPO inhibitor
[8] = no ethaboxam, sulfentrazone 500 g/ha

C#CCN1C(=O)COc2cc(F)c(N3C(=O)C4=C(CCCC4)C3=O)cc21 [flumioxazin]
Herbicidal effect Ivyleaf morningglory (Ivyleaf morningglory [1]; [4]): 30 | Herbicidal effect Ivyleaf morningglory (Ivyleaf morningglory [2]; [4]): 30

CC(C)N(C)S(=O)(=O)NC(=O)c1cc(-n2c(=O)cc(C(F)(F)F)n(C)c2=O)c(F)cc1Cl [saflufenacil]
Herbicidal effect Ivyleaf morningglory (Ivyleaf morningglory [3]; [5]): 50 | Herbicidal effect Ivyleaf morningglory (Ivyleaf morningglory [1]; no ethaboxam, saflufenacil 50 g/ha): 20 | Herbicidal effect Ivyleaf morningglory (Ivyleaf morningglory [1]; [5]): 70

CCNc1nc(CC)c(C(=O)NC(C#N)c2cccs2)s1 (centres unmarked) [ethaboxam]
Herbicidal effect Ivyleaf morningglory (Ivyleaf morningglory [3]; [6]): 0 | Herbicidal effect Ivyleaf morningglory (Ivyleaf morningglory [3]; [7]): 0 | Herbicidal effect Ivyleaf morningglory (Ivyleaf morningglory [1]; [6]): 0 | Herbicidal effect Ivyleaf morningglory (Ivyleaf morningglory [1]; [7]): 0 | Herbicidal effect Ivyleaf morningglory (Ivyleaf morningglory [2]; [6]): 0 | Herbicidal effect Ivyleaf morningglory (Ivyleaf morningglory [2]; [7]): 0

Cc1nn(-c2cc(NS(C)(=O)=O)c(Cl)cc2Cl)c(=O)n1C(F)F [sulfentrazone]
Herbicidal effect Ivyleaf morningglory (Ivyleaf morningglory [1]; [8]): 40 | Herbicidal effect Ivyleaf morningglory (Ivyleaf morningglory [2]; no ethaboxam, sulfentrazone 100 g/ha): 30 | Herbicidal effect Ivyleaf morningglory (Ivyleaf morningglory [2]; [8]): 70
